Measured values reported in patent US7129215B2, “Tripeptide and tetrapeptide thioethers” (Telik, Inc., priority 2005, dated 2006).
Read-outs that look alike come from different tables or passages of the source. *1 amine or outer side, *2 acyl side, *3 side chain or, on linkers, in order; H or OH if unused. Where a SMILES comes first, the peptide text is derived from it. [ ]: non-standard residue; d: D form. The star is where a group is joined. γGlu = O=C(O)[C@H](CCC(=O)[*:2])N[*:1]; dPhg = N[C@@H](C(=O)O)c1ccccc1; Bn = c1ccc(C*)cc1

Experiments:
[1] = target: T1, Recombinant human GST P1-1 (Homo sapiens, UniProt P09211); details: background statement; read-out: GST P1-1 IC50 (related art statement); cited from earlier work
T1 construct: purchased EMD Biosciences, Inc., San Diego, Calif., U.S.A
T1 sequence (P09211 2-210 limits assumed): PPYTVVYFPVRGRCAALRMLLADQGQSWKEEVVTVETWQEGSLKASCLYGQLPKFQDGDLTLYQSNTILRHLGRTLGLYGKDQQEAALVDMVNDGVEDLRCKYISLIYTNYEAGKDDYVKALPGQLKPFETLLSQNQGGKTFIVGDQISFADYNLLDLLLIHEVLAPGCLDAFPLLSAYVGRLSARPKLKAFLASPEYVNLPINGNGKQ

[2] = target: T1, Recombinant human GST P1-1; assay: Inhibition of glutathione S-transferase isoenzyme GST P1-1; assay type: biochemical
Protocol: (§1) Inhibition of glutathione S-transferase isoenzymes.
(§2) For each assay, the test compound and GSH were added to the isoenzyme. Immediately after the addition of CDNB solution to the isoenzyme/compound/GSH solution, the absorbance at 340 nm was recorded continuously for 5 min on a SpectraMax plate reader (Molecular Devices, Inc., Sunnyvale, Calif., U.S.A.). The GST inhibitory activity of each compound was calculated from the slopes of the absorbance/time curves at the various concentrations of test compound. All assays were conducted in duplicate wells, with DMSO control, with the final DMSO concentration maintained at 2%.

GSTπ = target: T2, GSTπ (Homo sapiens, UniProt P09211); assay: GSTπ immunoprecipitation assay in HL60 cells; assay type: cell-based; details: HL-60, read-out: GSTπ inhibition, %
T2 construct: endogenous in cells; host or cells: HL-60 (human promyeloid myelocytic leukemia)
T2 sequence (P09211 2-210 limits assumed): as above
Protocol: In vitro example 3. GSTπ immunoprecipitation assay. This example illustrates the beneficial effects of compounds of this invention in causing GSTπ immunoprecipitation. […] HL60 cells were seeded at 6×10^5 cells/mL in 20 mL RPMI-1640 medium supplemented with 10% fetal bovine serum, 1 mM glutamine and 20 μM gentamycin in a T75 flask and cultured overnight in 5% CO2 atmosphere at 37° C. […] Following the treatment, the cells were collected by centrifugation and washed twice with phosphate-buffered saline. The cell pellets were resuspended in 1 mL lysis buffer (50 mM Tris, pH 8.0, 120 mM NaCl, 0.5% NP-40 surfactant, 100 mM NaF; to which protease and phosphatase inhibitors (Roche Diagnostics, Indianapolis, Ind., U.S.A.) had been added before use) and incubated with gentle agitation for 30 minutes at 4° C. The cell lysates were cleared by centrifugation at 13,000 rpm for 10 minutes to remove cell debris. […] Following overnight incubation at 4° C., 30 μL of Protein A/G agarose beads (Pierce, Rockford, Ill.) were added to the mixture and incubated for 1 hour at 4° C. […] GSTπ protein bands were visualized and band intensity quantified on Odyssey infrared scanner (Li-Cor, Lincoln, Nebr., U.S.A.). The band intensity from a compound treatment was compared to its corresponding DMSO control and expressed as percent inhibition.

[3] = target: T3, Recombinant human GST A1-1 (Homo sapiens, UniProt P08263); assay: Inhibition of glutathione S-transferase isoenzyme GST A1-1; assay type: biochemical
T3 construct: purchased EMD Biosciences, Inc., San Diego, Calif., U.S.A
T3 sequence (P08263 1-222): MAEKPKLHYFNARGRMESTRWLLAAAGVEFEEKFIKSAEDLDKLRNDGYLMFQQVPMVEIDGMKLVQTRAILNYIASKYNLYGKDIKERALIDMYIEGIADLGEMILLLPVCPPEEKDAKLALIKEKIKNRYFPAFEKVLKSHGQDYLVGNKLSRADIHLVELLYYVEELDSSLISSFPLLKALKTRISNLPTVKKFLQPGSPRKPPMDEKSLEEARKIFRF
Protocol: as §1, §2

[4] = target: T4, Recombinant human GST M1-1 (Homo sapiens, UniProt P09488); assay: Inhibition of glutathione S-transferase isoenzyme GST M1-1; assay type: biochemical
T4 construct: purchased EMD Biosciences, Inc., San Diego, Calif., U.S.A
T4 sequence (P09488 2-218 limits assumed): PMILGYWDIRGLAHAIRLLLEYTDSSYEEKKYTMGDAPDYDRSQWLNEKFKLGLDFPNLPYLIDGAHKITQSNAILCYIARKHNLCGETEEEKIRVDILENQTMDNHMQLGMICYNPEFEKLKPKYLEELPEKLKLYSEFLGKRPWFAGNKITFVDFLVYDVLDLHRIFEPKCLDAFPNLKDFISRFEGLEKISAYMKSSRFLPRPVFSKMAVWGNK
Protocol: as §1, §2

[5] = system: HL-60 human leukemia cell line; assay: Cytotoxicity in HL-60 cells (CellTiter-Glo); details: read-out: HL-60 CC50 (concentration that causes 50% growth inhibition); diethyl ester compounds (1B to 12B, TLK199); 72 hours
Protocol: Cytotoxicity in HL-60 cells.
The cells were then incubated for 72 hours (approximately three doubling times). The cells were then harvested by centrifugation (1200 rpm for 5 min at 20° C.), and 100 μL of the culture supernatant was removed and replaced by the same volume of the CellTiter-Glo reagent. After incubation for 10 minutes at room temperature with constant mixing, the plate was read with a luminometer, with the number of live cells being proportional to the observed luminescence. All assays were conducted in triplicate wells, with DMSO solvent control.

HL-60 cells [6] = details: background statement; cited from earlier work
[7] = Phase II, MDS, interim results; cited from earlier work
HL-60 cells [8] = assay: Enhancement of differentiation of HL-60 cells (CD11b expression, flow cytometry); assay type: cell-based, human; details: diethyl ester compounds; 24 hours; CD11b expression vs DMSO control
Protocol: Some of the diethyl ester compounds of this invention were also tested for their ability to enhance the differentiation of HL-60 cells. This illustrates the beneficial effect of the compounds of this invention in stimulating differentiation of the HL-60 human leukemia cell line in vitro. […] The cells were harvested by centrifugation (1250 rpm for 5 min at 20° C.) and washed with 2 mL ice-cold phosphate-buffered saline (PBS) containing 2% FBS, then stained with 10 μL phycoerythrin-conjugated anti-CD11b antibody or 10 μL phycoerythrin-conjugated isotype control antibody. After standing for 30 min on ice, the cells were re-suspended in 2 mL ice-cold PBS containing 2% FBS. The cells were harvested by centrifugation (1250 rpm for 5 min at 20° C.) and resuspended in 0.4 mL PBS containing 2% FBS. The specific cell surface expression of CD11b, a marker for granulocytes and monocytes, was detected by flow cytometry using a FACSCalibur analyzer (BD Biosciences). All assays were conducted in triplicate, with DMSO control. The extent of differentiation was expressed as a multiple of the signal from the DMSO control.

[9] = system: hematopoietic progenitor cells; details: normal human peripheral blood; cited from earlier work
[10] = both in vitro and in vivo; cited from earlier work
[11] = normal animals and animals depleted by cisplatin or fluorouracil; cited from earlier work

Q: Which IC50 [1] does the source give for `N[C@@H](CCC(=O)N[C@@H](CSCc1ccccc1)C(=O)N[C@@H](C(=O)O)c1ccccc1)C(=O)O` [TLK117, L-γ-glutamyl-S-(phenylmethyl)-L-cysteinyl-D-phenylglycine] (γGlu-Cys(Bn)-[dPhg]-OH) here?
A: ~0.4 µM

Q: And the IC50 [2]?
A: 0.409 µM

Q: And the inhibition at 20 µM (GSTπ)?
A: 90%

Q: What about the IC50 [3] of the same compound?
A: 17 µM

Q: What about the IC50 [4] of the same compound?
A: 70 µM

Q: With `N[C@@H](CCC(=O)N[C@@H](CSCc1ccc(Cl)cc1)C(=O)N[C@@H](C(=O)O)c1ccccc1)C(=O)O` [TLK137] as the compound, how does the IC50 ([2]; diacid compounds (1A to 12A, TLK117, TLK137), GSH and CDNB at 2×Km, pH 6.5) read?
A: 0.052 µM

Q: And the IC50 ([3]; diacid compounds, GSH and CDNB at 2×Km, pH 6.5, read-out: GST A1-1 IC50)?
A: 10 µM

Q: And the CC50 [5]?
A: 10 µM

Q: And the IC50 ([4]; diacid compounds, GSH and CDNB at 2×Km, pH 6.5, read-out: GST M1-1 IC50)?
A: 6.5 µM

Q: Which “Differentiation of HL-60 promyelocytic leukemia cells in vitro” value (HL-60 cells [6]) does the source give for `CCOC(=O)[C@@H](N)CCC(=O)N[C@@H](CSCc1ccccc1)C(=O)N[C@@H](C(=O)OCC)c1ccccc1` [TLK199] here?
A: induce the differentiation

Q: What about the Hematologic improvement [7] of the same compound?
A: multilineage hematologic improvement

Q: What about the Tolerability [7] of the same compound?
A: well tolerated

Q: What about the “Enhancement of differentiation of HL-60 cells” value (HL-60 cells [8]) of the same compound?
A: enhances differentiation

Q: And the “Colony formation of hematopoietic progenitor cells” value [9]?
A: stimulate colony formation of all three lineages

Q: And the “Potentiation of the activity of cytotoxic agents” value [10]?
A: potentiate the activity of cytotoxic agents

Q: What about the “White blood cell production” value [11] of the same compound?
A: increase white blood cell production
